Test results reported in ChEMBL document CHEMBL3045879, “Isolation of long-chain esters from the rhizome of Polygonatum verticillatum by potent tyrosinase inhibition” (Med Chem Res, 2013).

Biological target: T1, Tyrosinase (Agaricus bisporus, UniProt O42713)
T1 sequence (O42713 whole entry): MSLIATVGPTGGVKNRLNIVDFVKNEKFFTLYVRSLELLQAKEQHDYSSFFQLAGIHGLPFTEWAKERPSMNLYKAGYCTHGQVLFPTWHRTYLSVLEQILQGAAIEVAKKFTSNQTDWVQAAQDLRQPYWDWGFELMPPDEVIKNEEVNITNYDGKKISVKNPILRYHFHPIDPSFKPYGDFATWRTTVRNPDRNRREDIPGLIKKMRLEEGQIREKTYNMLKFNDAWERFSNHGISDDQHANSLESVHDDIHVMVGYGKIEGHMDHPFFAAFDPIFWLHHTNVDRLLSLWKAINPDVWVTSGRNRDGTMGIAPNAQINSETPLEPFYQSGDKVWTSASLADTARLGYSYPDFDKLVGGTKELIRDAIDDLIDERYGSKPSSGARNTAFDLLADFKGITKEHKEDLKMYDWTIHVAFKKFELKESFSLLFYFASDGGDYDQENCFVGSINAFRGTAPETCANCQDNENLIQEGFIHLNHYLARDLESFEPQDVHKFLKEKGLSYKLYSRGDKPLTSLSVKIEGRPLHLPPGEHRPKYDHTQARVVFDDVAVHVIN
Experiment: Inhibition of Agaricus bisporus (mushroom) tyrosinase assessed as decrease in dopachrome formation using L-DOPA as substrate preincubated with enzyme for 10 min prior to substrate addition measured for 10 min by microplate reader analysis

Compound | IC50
CCCCCCCCCCCCCCC(=O)OCCC [PROPYL PENTADECANOATE] | 22.3 µM
CCCCCCCCCCCCCCC(=O)OCC(O)CO (configuration not stated) [2',3'-DIHYDROXY PROPYL PENTADECANOATE] | 9.45 µM
